Among the data in US10130096B2, “Method for protecting useful plants or plant propagation material” (SYNGENTA PARTICIPATIONS AG, priority 2011, dated 2018) are inhibition of growth and pest or weed control values, retold here.

The structures appear in SMILES notation. A value given as a limit tells only on which side of the number the result lay.

As usually defined, the pest or weed control is how far the test organism was held down. Lower therefore signals weak suppression.

The test system of experiment [1] is Monographella nivalis (Microdochium nivale). Put plainly: Monographella nivalis liquid culture growth inhibition. The format is cell-based. Particulars: photometric, 4-5 days after application, read-out: control on Monographella nivalis. The method, then:
Conidia of the fungus from cryogenic storage are directly mixed into nutrient broth (PDB potato dextrose broth). After placing a (DMSO) solution of test compound into a microtiter plate (96-well format), the nutrient broth containing the fungal spores is added. The test plates are incubated at 24° C. and the inhibition of growth is determined photometrically 4-5 days after application.

Experiment [2] has as its system Mycosphaerella arachidis (Cercospora arachidicola). The experiment in a line: Mycosphaerella arachidis liquid culture growth inhibition. The format is cell-based. Particulars: photometric, 4-5 days after application, read-out: control on Mycosphaerella arachidis. The protocol: (§1) Conidia of the fungus from cryogenic storage are directly mixed into nutrient broth (PDB potato dextrose broth). After placing a (DMSO) solution of test compound into a microtiter plate (96-well format), the nutrient broth containing the fungal spores is added.

The subject of experiment [3] is Botryotinia fuckeliana (Botrytis cinerea). Put plainly: Botryotinia fuckeliana liquid culture growth inhibition. In kind it is cell-based. The following applies: photometric, 3-4 days after application, read-out: control on Botryotinia fuckeliana. The method, then: Conidia of the fungus from cryogenic storage are directly mixed into nutrient broth (Vogels broth). After placing a (DMSO) solution of test compound into a microtiter plate (96-well format), the nutrient broth containing the fungal spores is added.

Experiment [4] concerns Glomerella lagenarium (Colletotrichum lagenarium). Put plainly: Glomerella lagenarium liquid culture growth inhibition. In kind it is cell-based. The following applies: Colletotrichum orbiculare, photometric, 3-4 days after application, read-out: control on Glomerella lagenarium. The method, then: as §1
In another experiment the test system is Alternaria solani. Put plainly: Alternaria solani on tomato plants. The format is in vivo. The following applies: 4-week old tomato plants cv. Roter Gnom, spray, inoculated two days after application. The protocol: 4-week old tomato plants cv. Roter Gnom are sprayed in a spray chamber with the formulated test compound diluted in water. The test plants are inoculated by spraying them with a spore suspension two days after application. The inoculated test plants are incubated at 22/18° C. (day/night) and 95% rh in a greenhouse and the percentage leaf area covered by disease is assessed when an appropriate level of disease appears on untreated check plants (5-7 days after application).

Another experiment relates to Pythium ultimum. The experiment in a line: Pythium ultimum liquid culture growth inhibition. The format is cell-based. The following applies: Globisporangium ultimum, photometric, 2-3 days after application, read-out: control on Pythium ultimum. The method, then: Mycelia fragments and oospores of a newly grown liquid culture of the fungus are directly mixed into nutrient broth (PDB potato dextrose broth). After placing a (DMSO) solution of test compound into a microtiter plate (96-well format), the nutrient broth containing the fungal mycelia/spore mixture is added.

The subject of a further experiment is Fusarium culmorum. The experiment in a line: Fusarium culmorum liquid culture growth inhibition. Particulars: photometric, 3-4 days after application, read-out: control on Fusarium culmorum. In kind it is cell-based. The protocol:
Conidia of the fungus from cryogenic storage are directly mixed into nutrient broth (PDB potato dextrose broth). After placing a (DMSO) solution of test compound into a microtiter plate (96-well format), the nutrient broth containing the fungal spores is added. The test plates are incubated at 24° C. and the inhibition of growth is determined photometrically 3-4 days after application.

Experiment [5] relates to Thanatephorus cucumeris (Rhizoctonia solani). The experiment in a line: Thanatephorus cucumeris liquid culture growth inhibition. In kind it is cell-based. The following applies: photometric, 3-4 days after application, read-out: control on Thanatephorus cucumeris. The protocol: Mycelia fragments of a newly grown liquid culture of the fungus are directly mixed into nutrient broth (PDB potato dextrose broth). After placing a (DMSO) solution of the test compounds into a microtiter plate (96-well format), the nutrient broth containing the fungal material is added. The test plates are incubated at 24° C. and the inhibition of growth is determined photometrically 3-4 days after application.

Consider `OB1OCc2c1ccc1ccccc21` [Compound 16, 1H-2-Oxa-3-bora-cyclopenta[a]naphthalen-3-ol], for which the inhibition of growth at 200 ppm in experiment [1], in experiment [2], in experiment [3] and in experiment [4] was ≥ 80% each time.
Consider `CC(C)(C)c1ccc2c(c1)COB2OCCN` [Compound 33, 2-(5-tert-Butyl-3H-benzo[c][1,2]oxaborol-1-yloxy)-ethylamine], for which the inhibition of growth at 200 ppm in experiment [2] is ≥ 80%.
As to `NCC(OB1OCc2cc(Cl)ccc21)c1ccccc1` (centres unmarked) [Compound 3, 2-(5-Chloro-3H-benzo[c][1,2]oxaborol-1-yloxy)-2-phenyl-ethylamine], the inhibition of growth at 200 ppm (in experiment [1]; in experiment [2]; in the experiment with Pythium ultimum; in the experiment with Fusarium culmorum; in experiment [3]; in experiment [4]) was ≥ 80% in each case. Also, the pest or weed control at 60 ppm with Alternaria solani is ≥ 60%.
On to `Clc1ccc2c(c1)COB2OC[C@@H]1CCCN1` [Compound 24, (S)-2-(5-Chloro-3H-benzo[c][1,2]oxaborol-1-yloxymethyl)-pyrrolidine], for which the inhibition of growth at 200 ppm (in experiment [5]; in experiment [1]; in experiment [2]; with Pythium ultimum; in the experiment on Fusarium culmorum; in experiment [3]) was ≥ 80% throughout. The inhibition of growth at 200 ppm in experiment [4] is ≥ 80%.
Consider `NCCOB1OCc2cc(Cl)ccc21` [Compound 36, 2-(5-Chloro-3H-benzo[c][1,2]oxaborol-1-yloxy)-ethylamine], for which the inhibition of growth at 200 ppm (in experiment [5]; in experiment [1]; in experiment [2]; in the experiment with Pythium ultimum; with Fusarium culmorum; in experiment [3]) was ≥ 80% each time. The inhibition of growth at 200 ppm in experiment [4] is ≥ 80%.
On to `CC(C)(N)COB1OCc2ccccc21` [Compound 32, 2-(3H-Benzo[c][1,2]oxaborol-1-yloxy)-1,1-dimethyl-ethylamine], for which the inhibition of growth at 200 ppm (in experiment [1]; in experiment [2]; in the experiment with Pythium ultimum; in the experiment on Fusarium culmorum; in experiment [3]; in experiment [4]) was ≥ 80% in each case.
In the case of `OB1OCc2ccc(Cl)cc21` [Compound 6, 6-Chloro-3H-benzo[c][1,2]oxaborol-1-ol], the inhibition of growth at 200 ppm (in experiment [5]; in experiment [1]; in experiment [2]; in the experiment on Pythium ultimum; in the experiment on Fusarium culmorum; in experiment [3]) was ≥ 80% throughout. The inhibition of growth at 200 ppm in experiment [4] was ≥ 80%.
Take `CC(C)(C)c1ccc2c(c1)COB2O` [Compound 34, 5-tert-Butyl-3H-benzo[c][1,2]oxaborol-1-ol]: the inhibition of growth at 200 ppm in experiment [1], in experiment [2] and in experiment [4] was ≥ 80% throughout.
Regarding `NCCOB1OCc2c1ccc1ccccc21` [Compound 18, 2-(1H-2-Oxa-3-bora-cyclopenta[a]naphthalen-3-yloxy)-ethylamine], the inhibition of growth at 200 ppm (in experiment [1]; in experiment [2]; in the experiment on Pythium ultimum; in the experiment with Fusarium culmorum; in experiment [4]) was ≥ 80% each time. In the experiment on Alternaria solani, the pest or weed control at 60 ppm was ≥ 60%.
Take `N[C@H](COB1OCc2cc(Cl)ccc21)Cc1ccccc1` [Compound 20, (S)-1-Benzyl-2-(5-chloro-3H-benzo[c][1,2]oxaborol-1-yloxy)-ethylamine]: the inhibition of growth at 200 ppm (in experiment [5]; in experiment [1]; in experiment [2]; in the experiment on Pythium ultimum; in the experiment with Fusarium culmorum; in experiment [3]) was ≥ 80% throughout. Also, the inhibition of growth at 200 ppm in experiment [4] is ≥ 80%.
For the compound `OB1OCc2cc3ccccc3cc21` [Compound 15, 3H-2-Oxa-1-bora-cyclopenta[b]naphthalen-1-ol], the inhibition of growth at 200 ppm (in experiment [1]; in experiment [2]; in the experiment with Pythium ultimum; in the experiment on Fusarium culmorum; in experiment [3]; in experiment [4]) was ≥ 80% in each case. The pest or weed control at 60 ppm with Alternaria solani is ≥ 60%.
For the compound `CC(C)(N)COB1OCc2cc(Cl)ccc21` [Compound 21, 2-(5-Chloro-3H-benzo[c][1,2]oxaborol-1-yloxy)-1,1-dimethyl-ethylamine], the inhibition of growth at 200 ppm (in experiment [5]; in experiment [1]; in experiment [2]; in the experiment with Pythium ultimum; in the experiment on Fusarium culmorum; in experiment [3]) was ≥ 80% throughout. For the same compound, the inhibition of growth at 200 ppm in experiment [4] is ≥ 80%.
Consider `N[C@@H](COB1OCc2cc(Cl)ccc21)c1ccccc1` [Compound 23, (R)-2-(5-Chloro-3H-benzo[c][1,2]oxaborol-1-yloxy)-1-phenyl-ethylamine], for which the inhibition of growth at 200 ppm (in experiment [1]; in experiment [2]; in the experiment on Pythium ultimum; in the experiment on Fusarium culmorum; in experiment [3]; in experiment [4]) was ≥ 80% throughout.
`OB1OC(c2ccccc2)c2ccccc21` (centres unmarked) [Compound 19, 3-Phenyl-3H-benzo[c][1,2]oxaborol-1-ol]: the inhibition of growth at 200 ppm (in experiment [1]; in experiment [2]; with Pythium ultimum; in experiment [4]) was ≥ 80% throughout.
Turning to `Clc1ccc2c(c1)COB2Oc1cccc2cccnc12` [Compound 22, 8-(5-Chloro-3H-benzo[c][1,2]oxaborol-1-yloxy)-quinoline], the inhibition of growth at 200 ppm (in experiment [5]; in experiment [1]; in experiment [2]; in the experiment with Pythium ultimum; in the experiment with Fusarium culmorum; in experiment [3]) was ≥ 80% each time. Also, the inhibition of growth at 200 ppm in experiment [4] was ≥ 80%.
For `N[C@H](COB1OCc2cc(Cl)ccc21)c1ccccc1` [Compound 25, (S)-2-(5-Chloro-3H-benzo[c][1,2]oxaborol-1-yloxy)-1-phenyl-ethylamine], the inhibition of growth at 200 ppm (in experiment [1]; in experiment [2]; in the experiment with Pythium ultimum; in the experiment with Fusarium culmorum; in experiment [3]; in experiment [4]) was ≥ 80% throughout.
`c1ccc2c(c1)COB2Oc1cccc2cccnc12` [Compound 31, 8-(3H-Benzo[c][1,2]oxaborol-1-yloxy)-quinoline]: the inhibition of growth at 200 ppm (in experiment [1]; in experiment [2]; in the experiment on Pythium ultimum; with Fusarium culmorum; in experiment [3]; in experiment [4]) was ≥ 80% throughout.
Regarding `NCCOB1OCc2cc(Oc3ccccc3)ccc21` [Compound 35, 2-(5-Phenoxy-3H-benzo[c][1,2]oxaborol-1-yloxy)-ethylamine], the inhibition of growth at 200 ppm in experiment [1], in experiment [2] and in experiment [4] was ≥ 80% each time.
